These results are taken from US20250177366A1, “COMPOSITIONS AND METHODS FOR ALLEVIATING PAIN AND REDUCING ADVERSIVENESS OF STIMULI” (UNIVERSITY OF WASHINGTON, priority 2021, published 2025).

In this assay the test system is larval zebrafish. Nature of the assay: Thermal preference assay (28.5° C. vs 37.5° C.), non-sensitized. It counts as in vivo, Zebrafish (Danio rerio). The following applies: for effect of co-applied drug on AS1-induced attraction to noxious heat / temperature choice, drug alone / effect of structural analog on temperature preference (time spent in the 28.5° C. zone): 28.5° C. vs 37.5° C.; for effect of co-applied drug on AS1-induced attraction to noxious heat: drug + 5 μM AS1; for temperature choice, drug alone: without AS1; for Reverses 28.5° C. Choice?: temperature preference 28.5° C. vs 37.5° C., larval zebrafish; for effect of structural analog on temperature preference (time spent in the 28.5° C. zone): at the tested concentration. The procedure: Thermal preference assay. […] Once an entire plate was loaded with fish, the appropriate incubation solution was added. […] Following incubation in all experiments, the choice testing plate was transported to a dual solid-state heat/cool plate (AHP-1200° C. P; Teca) and centered such that half of each arena was positioned over each side of the heat/cool plate. […] Locomotor behavior was recorded using a Canon high-definition video camcorder suspended at a fixed position above the choice testing plate. Each trial was four minutes in duration.
For single-incubation assays (e.g. testing single chemicals), larval zebrafish were caught in 100 μL E2 media and 100 μL of the control (2% DMSO) or test chemical at 2× concentration was added to each well to achieve the final desired concentration. […] The final DMSO concentration in all solutions was 1%.

On to `CN1CCN(CCc2ccc(Cl)c(Cl)c2)CC1` [BD1063], for which the “effect of co-applied drug on AS1-induced attraction to noxious heat” value (shortened to “effect of co-applied drug”) is reported as “At no concentration did BD1063 influence AS1-induced attraction towards noxious heat” and the “temperature choice, drug alone” value was “significantly chose the 28.5 °C side”.
Taken in the same sequence, the figures for `CC(N)Cc1c[nH]c2ccc(OCc3cccs3)cc12` (stereo not drawn) [BW723C86] were “At no concentration did BW723C86 influence AS1-induced attraction towards noxious heat” and “significantly chose the 28.5 °C side”.
`O=C1CC2(CCCC2)CC(=O)N1CCCCN1CCN(c2ncccn2)CC1` [Buspirone, buspirone]: the “temperature choice, drug alone” value is “had no effect upon thermal preference”.
Regarding `CC(C)c1ccc(NC(=O)c2cccnc2)cc1` [Compound 5538018, N-(4-isopropylphenyl)nicotinamide], the “Reverses 28.5° C. Choice?” value is given as “No”.
For the compound `CC(C)c1ccc(C(=O)Nc2cccnc2)cc1` [Compound 7301738, 4-isopropyl-N-3-pyridinylbenzamide], the “effect of structural analog on temperature preference (time spent in the 28.5° C. zone)” value (“effect of structural analog” below) is recorded as “only had a small, if still significant, effect on temperature preference” and the “Reverses 28.5° C. Choice?” value is “No”.
On to `Cc1ccc(C(=O)Nc2ccncc2)c(C)c1` [Compound 7755382, 2,4-dimethyl-N-4-pyridinylbenzamide], for which the “effect of structural analog” value is listed as “prevented an analogue from replicating the effects of AS1” and the “Reverses 28.5° C. Choice?” value is listed as “No”.
`CCc1ccc(C(=O)Nc2cccnc2)cc1` [Compound 7947669, 4-ethyl-N-3-pyridinylbenzamide]: the “Reverses 28.5° C. Choice?” value is on record as “No”.
As to `Cc1cc(C)c(C(=O)Nc2ccncc2)c(C)c1` [Compound 9047736, 2,4,6-trimethyl-N-4-pyridinylbenzamide], the “effect of structural analog” value is on record as “prevented an analogue from replicating the effects of AS1” and the “Reverses 28.5° C. Choice?” value is recorded as “No”.
In the case of `CCCc1ccc(C(=O)Nc2ccncc2)cc1` [Compound 9089110, 4-propyl-N-4-pyridinylbenzamide], the “effect of structural analog” value was “abolished preference for either side” and the “Reverses 28.5° C. Choice?” value was “No preference for either temperature”. In addition, the “effect of structural analog” value (listed as Analog 9089110) was “completely ablated aversion”.
As to `Cc1noc(C)c1C(=O)Nc1ccc(C(C)C)cc1` [Compound 9089180, N-(4-isopropylphenyl)-3,5-dimethyl-4-isoxazolecarboxamide], the “effect of structural analog” value is given as “had a significant (if small) influence upon temperature choice behavior” and the “Reverses 28.5° C. Choice?” value is recorded as “No”.
In the case of `CCCc1ccc(C(=O)Nc2cccnc2)cc1` [Compound 9090934, 4-propyl-N-3-pyridinylbenzamide], the “effect of structural analog” value is listed as “has no effect upon temperature preference” and the “Reverses 28.5° C. Choice?” value is listed as “No”.
Take `CCCCc1ccc(C(=O)Nc2ccncc2)cc1` [Compound 9098532, 4-butyl-N-4-pyridinylbenzamide]: the “effect of structural analog” value was “prevented an analogue from replicating the effects of AS1” and the “Reverses 28.5° C. Choice?” value is “No”.
As to `COc1ccc(CC2NCCc3c2[nH]c2ccc(C)cc32)c(Cl)c1OC` (stereo not drawn) [LY266097], the “effect of co-applied drug” value is listed as “At no concentration did LY266097 influence AS1-induced attraction towards noxious heat” and the “temperature choice, drug alone” value was “significantly chose the 28.5 °C side”.
Turning to `COc1ccc(Br)cc1CCc1c(F)cccc1C1=NCCN1` [ML00253764], the “effect of co-applied drug” value was “At no concentration did ML00253764 reduce AS1-induced attraction towards noxious heat” and the “temperature choice, drug alone” value was “slightly potentiate preference towards the 28.5 °C zone”.
For the compound `O=C(OCCN1CCOCC1)C1(c2ccccc2)CCCCC1` [PRE-084], the “effect of co-applied drug” value is “At no concentration did PRE-084 influence AS1-induced attraction towards noxious heat” and the “temperature choice, drug alone” value is “potentiating preference for the 28.5 °C zone”.
For the compound `Cn1c(=O)c2c(ncn2C)n(C)c1=O` [caffeine], the “temperature choice, drug alone” value is “did not affect thermal preference for 28.5 °C”.
Regarding `CN1C(=O)CN=C(c2ccccc2)c2cc(Cl)ccc21` [diazepam], the “temperature choice, drug alone” value is “potentiated preference for 28.5 °C”.
